Data published in patent publication US20250032460A1, “METHODS OF TREATING NEUROLOGICAL DISORDERS” (MapLight Therapeutics, Inc., priority 2021, published 2025).
Values joined by “and” are separate entries in the source; they are usually repeats but may differ in a detail not shown here. Equal values may be shown once.

What was measured:
[1] = Plasma concentrations during 7-day oral dosing in beagle dogs; format: in vivo; conditions: Group 3: Compound 1 1.5 mg/kg/day PO + fesoterodine fumarate 3 mg/kg/day PO
[2] = Plasma pharmacokinetics after single-dose intravenous administration in rats; format: in vivo, Sprague Dawley rats; conditions: for AUClast of desfesoterodine / C0 of desfesoterodine: IV
Experimental: The plasma concentration-time profile was evaluated for fesoterodine active metabolite desfesoterodine and Compound 1 in male Sprague Dawley rats following single-dose intravenous administration of fesoterodine (0.25 mg/kg) and Compound 1 (0.5 mg/kg and 1.5 mg/kg) alone and single-dose co-administration. Plasma exposures of desfesoterodine were similar following administration of fesoterodine alone and in combination with Compound 1.

[3] = Single ascending dose study: pharmacokinetics (plasma, CSF); format: in vivo; conditions: Group 2, fesoterodine fumarate 8 mg 4 hours prior to 40 mg Compound 1
Experimental: Compound 1 was administered in a single ascending dose (SAD) study conducted in approximately 54 healthy adult volunteers to investigate Compound 1 pharmacokinetics, safety, and tolerability. The study was conducted in two groups.
Group 2 evaluated tolerability of Compound 1 at Group 1 MTD with or without fesoterodine fumarate co-administration. Subjects received 8 mg of fesoterodine fumarate tablet or matched placebo tablet 4 hours prior to administration of 40 mg of Compound 1.

[4] = Post-procedure plasma exposure (salivation study); format: in vivo, Sprague Dawley rats
Experimental: An in vivo primary pharmacology study evaluating the fesoterodine fumarate dose-response antagonistic effect on Compound 1 induced salivation in anaesthetized male Sprague Dawley rats was conducted. […] Intravenous fesoterodine doses were administered at […]. Fesoterodine was dosed 10 minutes prior to dosage of Compound 1. All animals were normal with no observed abnormality detected in clinical signs or behavior. Salivation was measured by using oral dry swab in anesthetized rats with the calculated difference between the dry swab weight and the wet swab weight indicating the weight of saliva produced. Samples were collected post-dosing for one hour at 10-minute intervals.
At the end of the study period, plasma samples were collected to measure exposure of Compound 1, fesoterodine fumarate, and fesoterodine active metabolite 5-hydroxymethyl tolterodine (5-HMT), also referred to as desfesoterodine, is summarized in Table 2.

[5] = Fesoterodine: 0.25 + Compound 1: 0.5 mg/kg
[6] = Fesoterodine: 0.25 + Compound 1: 1.5 mg/kg

CC(C)N(CCC(c1ccccc1)c1cc(CO)ccc1O)C(C)C (stereo not shown) [desfesoterodine, 5-hydroxymethyl tolterodine]
Plasma concentration of desfesoterodine, individual animals D3001-D3005 ([1]; Day 1, 2.00 h): 32.4 ng/mL and 17.2 ng/mL and 74.2 ng/mL and 10.7 ng/mL and 45.5 ng/mL
Plasma concentration of desfesoterodine, Mean ([1]; Day 1, 4.00 h): 9.29 ng/mL
Plasma concentration of desfesoterodine, individual animals D3001-D3005 ([1]; Day 1, 4.00 h): 7.08 ng/mL and 3.69 ng/mL and 17.0 ng/mL and 5.38 ng/mL and 13.3 ng/mL
Plasma concentration of desfesoterodine, Mean ([1]; Day 1, 8.00 h): 2.78 ng/mL
Plasma concentration of desfesoterodine, individual animals D3001-D3005 ([1]; Day 1, 8.00 h): 1.41 ng/ml and 4.22 ng/ml and 3.82 ng/ml and BQL and 1.67 ng/ml
Plasma concentration of desfesoterodine, individual animals D3001-D3005 ([1]; Day 1, 24.0 h): BQL
Plasma concentration of desfesoterodine, individual animals D3001-D3005 ([1]; Day 7, 0.00 h): BQL
Plasma concentration of desfesoterodine, Mean ([1]; Day 7, 0.250 h): 183 ng/mL
Plasma concentration of desfesoterodine, individual animals D3001-D3005 ([1]; Day 7, 0.250 h): 29.1 ng/mL and 60.6 ng/mL and 407 ng/mL and 149 ng/mL and 270 ng/mL
Plasma concentration of desfesoterodine, Mean ([1]; Day 7, 0.500 h): 201 ng/mL
Plasma concentration of desfesoterodine, individual animals D3001-D3005 ([1]; Day 7, 0.500 h): 103 ng/mL and 77.7 ng/mL and 318 ng/mL and 197 ng/mL and 311 ng/mL
Plasma concentration of desfesoterodine, Mean ([1]; Day 7, 0.750 h): 148 ng/mL
Plasma concentration of desfesoterodine, individual animals D3001-D3005 ([1]; Day 7, 0.750 h): 84.3 ng/mL and 66.4 ng/mL and 294 ng/mL and 102 ng/mL and 191 ng/mL
Plasma concentration of desfesoterodine, Mean ([1]; Day 7, 1.00 h): 128 ng/mL
Plasma concentration of desfesoterodine, individual animals D3001-D3005 ([1]; Day 7, 1.00 h): 73.5 ng/mL and 64.7 ng/mL and 224 ng/mL and 105 ng/mL and 175 ng/mL
Plasma concentration of desfesoterodine, Mean ([1]; Day 7, 2.00 h): 80.5 ng/mL
Plasma concentration of desfesoterodine, individual animals D3001-D3005 ([1]; Day 7, 2.00 h): 45.8 ng/mL and 42.6 ng/mL and 149 ng/mL and 63.2 ng/mL and 102 ng/mL
Plasma concentration of desfesoterodine, Mean ([1]; Day 7, 4.00 h): 40.2 ng/mL
Plasma concentration of desfesoterodine, individual animals D3001-D3005 ([1]; Day 7, 4.00 h): 52.2 ng/mL and 15.2 ng/mL and 61.6 ng/mL and 31.6 ng/mL and 40.5 ng/mL
Plasma concentration of desfesoterodine, Mean ([1]; Day 7, 8.00 h): 5.93 ng/mL
Plasma concentration of desfesoterodine, individual animals D3001-D3005 ([1]; Day 7, 8.00 h): 10.6 ng/mL and 3.92 ng/mL and 8.16 ng/mL and 2.93 ng/mL and 4.06 ng/mL
Plasma concentration of desfesoterodine, individual animals D3001-D3005 ([1]; Day 7, 24.0 h): BQL
AUClast of desfesoterodine ([2]; Fesoterodine: 0.25 mg/kg alone): 15.41 ng·h/mL
C0 of desfesoterodine ([2]; Fesoterodine: 0.25 mg/kg alone): 27.09 ng/mL
AUClast of desfesoterodine [2, 5]: 13.05 ng·h/mL
C0 of desfesoterodine [2, 5]: 34.63 ng/mL
AUClast of desfesoterodine [2, 6]: 13.73 ng·h/mL
C0 of desfesoterodine [2, 6]: 38.71 ng/mL
plasma exposures of desfesoterodine, fesoterodine alone vs in combination with Compound 1 ([2]; fesoterodine 0.25 mg/kg IV, rats): similar
mean desfesoterodine concentration in CSF at 1hour after administration of compound 1 [3]: 121.44 pg/mL
Plasma Concentration 1-Hour Post-procedure (mean value), Desfesoterodine (5-HMT) ([4]; Fesoterodine 0.0078 mg/mL + Compound 1 (1.5 mg/kg)): BLQ
Plasma Concentration 1-Hour Post-procedure (mean value), Desfesoterodine (5-HMT) ([4]; Fesoterodine 0.0156 mg/mL + Compound 1 (1.5 mg/kg)): BLQ
Plasma Concentration 1-Hour Post-procedure (mean value), Desfesoterodine (5-HMT) ([4]; Fesoterodine 0.0312 mg/mL + Compound 1 (1.5 mg/kg)): BLQ
Plasma Concentration 1-Hour Post-procedure (mean value), Desfesoterodine (5-HMT) ([4]; Fesoterodine 0.0625 mg/mL + Compound 1 (1.5 mg/kg)): BLQ
Plasma Concentration 1-Hour Post-procedure (mean value), Desfesoterodine (5-HMT) ([4]; Fesoterodine 0.125 mg/mL + Compound 1 (1.5 mg/kg)): BLQ
Plasma Concentration 1-Hour Post-procedure (mean value), Desfesoterodine (5-HMT) ([4]; Fesoterodine 0.25mg/mL + Compound 1 (1.5 mg/kg)): 5.15 ng/mL
Plasma Concentration 1-Hour Post-procedure (mean value), Desfesoterodine (5-HMT) ([4]; Fesoterodine 0.5 mg/mL + Compound 1 (1.5 mg/kg)): 6.19 ng/mL
